Test results published in PubChem BioAssay (NCI).
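Where inhibition never reached the appropriate level, the endpoint shown equals the highest concentration tested. Otherwise, values were interpolated linearly from a five-concentration, 48-hour dose response in 96-well plates. TGI: concentration producing complete growth inhibition.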

Experiments:
Experiment in all cases: NCI tumour cell line growth inhibition, 48 h
SR leukemia = system: SR leukemia
SW-620 colon = system: SW-620 colon
CAKI-1 renal = system: CAKI-1 renal
HOP-92 NSCLC = system: HOP-92 NSCLC
SNB-19 CNS = system: SNB-19 CNS
LOX IMVI melanoma = system: LOX IMVI melanoma
OVCAR-5 ovarian = system: OVCAR-5 ovarian
OVCAR-3 ovarian = system: OVCAR-3 ovarian
SK-MEL-2 melanoma = system: SK-MEL-2 melanoma
KM12 colon = system: KM12 colon
RXF-631 renal = system: RXF-631 renal
HOP-18 NSCLC = system: HOP-18 NSCLC
M14 melanoma = system: M14 melanoma
DMS 273 small cell lung = system: DMS 273 small cell lung
MOLT-4 leukemia = system: MOLT-4 leukemia
HCC-2998 colon = system: HCC-2998 colon
HCT-116 colon = system: HCT-116 colon
SF-295 CNS = system: SF-295 CNS
HCT-15 colon = system: HCT-15 colon
SK-OV-3 ovarian = system: SK-OV-3 ovarian
HL-60(TB) leukemia = system: HL-60(TB) leukemia
SF-268 CNS = system: SF-268 CNS
COLO 205 colon = system: COLO 205 colon
NCI-H23 lung = system: NCI-H23 lung
HOP-62 NSCLC = system: HOP-62 NSCLC
XF 498 CNS = system: XF 498 CNS
SNB-78 CNS = system: SNB-78 CNS
OVCAR-8 ovarian = system: OVCAR-8 ovarian
U251 CNS = system: U251 CNS
SNB-75 CNS = system: SNB-75 CNS
CCRF-CEM leukemia = system: CCRF-CEM leukemia
DLD-1 colon = system: DLD-1 colon
KM20L2 colon = system: KM20L2 colon
ACHN renal = system: ACHN renal
NCI-H460 lung = system: NCI-H460 lung
TK-10 renal = system: TK-10 renal
A498 renal = system: A498 renal
UACC-62 melanoma = system: UACC-62 melanoma
EKVX NSCLC = system: EKVX NSCLC
DMS 114 small cell lung = system: DMS 114 small cell lung
LXFL 529 NSCLC = system: LXFL 529 NSCLC
SK-MEL-5 melanoma = system: SK-MEL-5 melanoma
786-0 renal = system: 786-0 renal
HT29 colon = system: HT29 colon
SF-539 CNS = system: SF-539 CNS
RPMI-8226 leukemia = system: RPMI-8226 leukemia
UACC-257 melanoma = system: UACC-257 melanoma
MALME-3M melanoma = system: MALME-3M melanoma
SN12C renal = system: SN12C renal
A549 NSCLC = system: A549 NSCLC
OVCAR-4 ovarian = system: OVCAR-4 ovarian
M19-MEL melanoma = system: M19-MEL melanoma
IGROV1 ovarian = system: IGROV1 ovarian
UO-31 renal = system: UO-31 renal
RXF 393 renal = system: RXF 393 renal
SK-MEL-28 melanoma = system: SK-MEL-28 melanoma
K-562 leukemia = system: K-562 leukemia
NCI-H522 lung = system: NCI-H522 lung
NCI-H226 lung = system: NCI-H226 lung
NCI/ADR-RES ovarian = system: NCI/ADR-RES ovarian
SN12K1 renal = system: SN12K1 renal
P388/ADR leukemia = system: P388/ADR leukemia
P388 leukemia = system: P388 leukemia
MCF7 breast = system: MCF7 breast

Measured: TGI

CC1(C)CC2CC(CC(C)(C)C2=O)C1=O
> 100 µM: SR leukemia | SW-620 colon | CAKI-1 renal | HOP-92 NSCLC | SNB-19 CNS | LOX IMVI melanoma | OVCAR-5 ovarian | OVCAR-3 ovarian | SK-MEL-2 melanoma | KM12 colon | RXF-631 renal | HOP-18 NSCLC | M14 melanoma | DMS 273 small cell lung | MOLT-4 leukemia | HCC-2998 colon | HCT-116 colon | SF-295 CNS | HCT-15 colon | SK-OV-3 ovarian | HL-60(TB) leukemia | SF-268 CNS | COLO 205 colon | NCI-H23 lung | HOP-62 NSCLC | XF 498 CNS | SNB-78 CNS | OVCAR-8 ovarian | U251 CNS | SNB-75 CNS | CCRF-CEM leukemia | DLD-1 colon | KM20L2 colon | ACHN renal | NCI-H460 lung | TK-10 renal | A498 renal | UACC-62 melanoma | EKVX NSCLC | DMS 114 small cell lung | LXFL 529 NSCLC | SK-MEL-5 melanoma | 786-0 renal | HT29 colon | SF-539 CNS | RPMI-8226 leukemia | UACC-257 melanoma | MALME-3M melanoma | SN12C renal | A549 NSCLC | OVCAR-4 ovarian | M19-MEL melanoma | IGROV1 ovarian | UO-31 renal | RXF 393 renal | SK-MEL-28 melanoma | K-562 leukemia

COc1ccc(COC2CC(OC)OC(C)C2OC(=O)c2ccccc2)cc1 (centres undefined)
> 95 µM: OVCAR-3 ovarian | COLO 205 colon
> 71.3 µM: MALME-3M melanoma
40.1 µM: MOLT-4 leukemia
70.7 µM: UO-31 renal
> 59.5 µM: HCT-15 colon
31.9 µM: SK-MEL-5 melanoma
> 91.8 µM: DLD-1 colon
46.7 µM: RPMI-8226 leukemia
39.6 µM: HT29 colon
> 96.6 µM: RXF 393 renal
67.9 µM: LOX IMVI melanoma
> 100 µM: SW-620 colon | CAKI-1 renal | HOP-92 NSCLC | SNB-19 CNS | SK-MEL-2 melanoma | KM12 colon | RXF-631 renal | HOP-18 NSCLC | M14 melanoma | DMS 273 small cell lung | HCC-2998 colon | SF-295 CNS | SK-OV-3 ovarian | SF-268 CNS | HOP-62 NSCLC | SNB-78 CNS | OVCAR-8 ovarian | U251 CNS | SNB-75 CNS | CCRF-CEM leukemia | NCI-H460 lung | TK-10 renal | A498 renal | UACC-62 melanoma | EKVX NSCLC | 786-0 renal | SF-539 CNS | UACC-257 melanoma | SN12C renal | A549 NSCLC | OVCAR-4 ovarian | IGROV1 ovarian | SK-MEL-28 melanoma | K-562 leukemia
49.4 µM: XF 498 CNS
> 88.4 µM: ACHN renal
> 81.8 µM: LXFL 529 NSCLC
> 84 µM: HCT-116 colon
32.9 µM: KM20L2 colon
> 92.6 µM: NCI-H23 lung
49.7 µM: HL-60(TB) leukemia
81.5 µM: DMS 114 small cell lung
> 94.7 µM: OVCAR-5 ovarian
65.9 µM: NCI-H226 lung
58.2 µM: SR leukemia
> 91.1 µM: M19-MEL melanoma
> 93.5 µM: NCI-H522 lung

CCOC(=O)/C(O)=C(/C(=O)OC)c1ccc(Cl)cc1
> 100 µM: SW-620 colon | CAKI-1 renal | SNB-19 CNS | LOX IMVI melanoma | OVCAR-5 ovarian | OVCAR-3 ovarian | SK-MEL-2 melanoma | KM12 colon | RXF-631 renal | M14 melanoma | DMS 273 small cell lung | MOLT-4 leukemia | HCC-2998 colon | SF-295 CNS | HCT-15 colon | SK-OV-3 ovarian | SF-268 CNS | COLO 205 colon | NCI-H23 lung | HOP-62 NSCLC | XF 498 CNS | SNB-78 CNS | OVCAR-8 ovarian | U251 CNS | SNB-75 CNS | CCRF-CEM leukemia | DLD-1 colon | KM20L2 colon | ACHN renal | NCI-H460 lung | TK-10 renal | A498 renal | UACC-62 melanoma | EKVX NSCLC | DMS 114 small cell lung | LXFL 529 NSCLC | SK-MEL-5 melanoma | 786-0 renal | HT29 colon | SF-539 CNS | RPMI-8226 leukemia | UACC-257 melanoma | MALME-3M melanoma | SN12C renal | A549 NSCLC | OVCAR-4 ovarian | M19-MEL melanoma | IGROV1 ovarian | UO-31 renal | SK-MEL-28 melanoma | K-562 leukemia

CC1=CC2c3cccc4[nH]cc(c34)CC2N(C)C1 (centres undefined)
> 82.4 µM: SNB-75 CNS
> 76.9 µM: UO-31 renal
> 88.2 µM: DLD-1 colon
82.4 µM: HOP-18 NSCLC
30.8 µM: HOP-62 NSCLC
99.1 µM: XF 498 CNS
> 80.7 µM: HOP-92 NSCLC
> 100 µM: SW-620 colon | CAKI-1 renal | SNB-19 CNS | LOX IMVI melanoma | OVCAR-5 ovarian | OVCAR-3 ovarian | NCI/ADR-RES ovarian | SK-MEL-2 melanoma | KM12 colon | NCI-H522 lung | DMS 273 small cell lung | MOLT-4 leukemia | HCT-116 colon | SF-295 CNS | HCT-15 colon | SK-OV-3 ovarian | HL-60(TB) leukemia | SF-268 CNS | NCI-H226 lung | COLO 205 colon | NCI-H23 lung | SNB-78 CNS | OVCAR-8 ovarian | U251 CNS | CCRF-CEM leukemia | KM20L2 colon | NCI-H460 lung | A498 renal | UACC-62 melanoma | EKVX NSCLC | DMS 114 small cell lung | P388 leukemia | SK-MEL-5 melanoma | HT29 colon | SF-539 CNS | RPMI-8226 leukemia | MCF7 breast | UACC-257 melanoma | MALME-3M melanoma | SN12C renal | A549 NSCLC | OVCAR-4 ovarian | M19-MEL melanoma | IGROV1 ovarian | RXF 393 renal | SK-MEL-28 melanoma | K-562 leukemia
86 µM: HCC-2998 colon
> 73.1 µM: P388/ADR leukemia
> 31.6 µM: SN12K1 renal
